For 19 molecules, GI50 results are on record in patent US10851065B2 (Eisai R&D Management Co., Ltd., priority 2015, dated 2020).

For assay [1], the system named is MCF7-Y537S cells (MCF7 ER-alpha Y537S mutant). Briefly: In vitro proliferation (viability) assay, CellTiter-Glo, MCF7-Y537S cells. Format: cell-based. The conditions noted are these: Homo sapiens; MCF7-Y537S cells, 6 days, CTG vs day 0; mean ± SD-type spread (n); read-out: GI50 MUT (Y537S). As for the experimental part: (§1) MCF7 BUS cells (Coser, et al., (2003) PNAS 100(24): 13994-13999) were maintained in Dulbecco's Modified Eagle Medium supplemented with 10% FBS, 4 mM L-glutamine and 1× non-essential amino acids. Lenti-X 293T cells (Clontech, Cat #632180) were routinely cultured in Dulbecco's Modified Eagle Medium supplemented with 10% FBS.
(§2) The QuikChange II XL Site-Directed Mutagenesis Kit (Agilent Technologies, Cat #200523) was used to generate Y537S, Y537C, Y537N and D538G mutations within the ERα exon 8. Wild-type ESR1 cDNA (GeneCopoeia Inc., Cat #GC-A0322, accession no. NM 000125) was used as a template with the following mutagenesis primers (where the underlined nucleotides represent site mutations); Y537S: F-AAGAACGTGGTGCCCCTCTCTGACCTGCTGCTGGAGATG (SEQ ID NO: 1), R-CATCTCCAGCAGCAGGTCAGAGAGGGGCACCACGTTCTT (SEQ ID NO: 2); Y537N: F-AAGAACGTGGTGCCCCTCAATGACCTGCTGCTGGAGATG (SEQ ID NO: 3), R-CATCTCCAGCAGCAGGTCATTGAGGGGCACCACGTTCTT (SEQ ID NO: 4); Y537C: F-AAGAACGTGGTGCCCCTCTGTGACCTGCTGCTGGAGATG (SEQ ID NO: 5), R-CATCTCCAGCAGCAGGTCACAGAGGGGCACCACGTTCTT (SEQ ID NO: 6); D538G: F-AACGTGGTGCCCCTCTATGGCCTGCTGCTGGAGATGCTG (SEQ ID NO: 7), R-CAGCATCTCCAGCAGCAGGCCATAGAGGGGCACCACGTT (SEQ ID NO: 8). WT and mutant ESR1 cDNAs were cloned into the designation lentiviral vector pLenti6.3/V5-Dest (Invitrogen, Cat #V533-06). To make lentivirus, DNAs (WT and mutant ESR1) were co-transfected with packaging plasmids into Lenti-X 293T cells using TransIT (Mirus, Cat #MIR 2700). 48 h post-transfection, virus containing media was filtered and added to MCF7 cells in the presence of 8 µg/ml polybrene overnight. Two days following infection, cells were placed under selection with 10 μg/ml blasticidin for 2 weeks for stable expression.
(§3) MCF7-WT and -Y537S cells were seeded at 1500 cells/well in black-walled 96-well plates (assay plates, Costar, Cat #3904). In parallel, cells were also seeded in a separate 96-well plate (8 wells/cell line, control plate) for which a CTG (CellTiter-Glo® Luminescent Viability Assay, Promega, Cat #G7572) was measured the following day (day 0 reading). The day 0 reading was used for the GI50 calculation at the termination of the experiment. The day following seeding, compounds were added to assay plates. Briefly, a 1:4 serial dilution was prepared in DMSO at 200× final concentration for a total of 10 concentrations (9 dilutions containing compound and one is DMSO only). Serially diluted compounds were pipetted into medium to prepare a compound-medium mix at 10× final concentration. 10 μl of compound-medium mix was added to MCF7-WT and -Y537S cells at 3 wells/concentration (triplicate for each concentration). On day 3, media/compound was removed and replaced with fresh media/compound as described above. On day 6, CTG was measured and compared to day 0 readings from control plate to assess GI50.

Assay [2] concerns MCF7-WT cells (MCF7 ER-alpha wildtype). In words: In vitro proliferation (viability) assay, CellTiter-Glo, MCF7-WT cells. Format: cell-based. The conditions noted are these: Homo sapiens; MCF7-WT cells, 6 days, CTG vs day 0; mean ± SD-type spread (n); read-out: GI50 WT. As for the experimental part:
as §1, §2, §3
A general note: In ATP-based viability assays light output follows the ATP content of the culture.

Take `CC/C(=C(/c1ccc(OCCNC/C=C/C(=O)N(C)C)cc1)c1ccc2[nH]nc(F)c2c1)c1ccccc1F` [Compound 43, (E)-4-((2-(4-((E)-1-(3-fluoro-1H-indazol-5-yl)-2-(2-fluorophenyl)but-1-en-1-yl)phenoxy)ethyl)amino)-N,N-dimethylbut-2-enamide]: the GI50 – broadly, the concentration that inhibits growth by half – in assay [1] stood at 47.3 nM; in assay [2], 1.94 nM.
In the same order, the values of `CC/C(=C(/c1ccc(OCCNC/C=C/C(=O)N(C)C)cc1)c1ccc2[nH]nc(F)c2c1)c1cccc(F)c1` [Compound 44, (E)-4-((2-(4-((E)-1-(3-fluoro-1H-indazol-5-yl)-2-(3-fluorophenyl)but-1-en-1-yl)phenoxy)ethyl)amino)-N,N-dimethylbut-2-enamide] are 180 nM and 4.91 nM.
Consider `CC/C(=C(/c1ccc(OCCNC/C=C/C(=O)N(C)C)cc1)c1ccc2[nH]nc(F)c2c1)c1ccc(F)cc1` [Compound 45], for which the concentration for 50% growth inhibition (GI50) is 104 nM in assay [1] and 4.14 nM in assay [2].
The matching figures for `CN(C)C(=O)/C=C/CNCCOc1ccc(/C(=C(\c2ccc(F)cc2Cl)C2CCC2)c2ccc3[nH]nc(F)c3c2)cc1` [Compound 46, (E)-4-((2-(4-((E)-2-(2-chloro-4-fluorophenyl)-2-cyclobutyl-1-(3-fluoro-1H-indazol-5-yl)vinyl)phenoxy)ethyl)amino)-N,N-dimethylbut-2-enamide]: 12.4 nM and 0.95 nM.
Regarding `CC/C(=C(/c1ccc(OCCNC/C=C/C(=O)N(C)C)c(F)c1)c1ccc2[nH]nc(F)c2c1)c1ccccc1` [Compound 49, (E)-4-((2-(2-fluoro-4-((Z)-1-(3-fluoro-1H-indazol-5-yl)-2-phenylbut-1-en-1-yl)phenoxy)ethyl)amino)-N,N-dimethylbut-2-enamide], the 50% growth inhibitory concentration (GI50) in assay [1] amounted to 288 nM; in assay [2] it was 5.4 nM.
In the same order, the values of `CC/C(=C(/c1ccc(OCCNC/C=C/C(=O)N(C)C)cc1)c1ccc2[nH]nc(F)c2c1)c1c(F)cccc1F` [Compound 50, (E)-4-((2-(4-((E)-2-(2,6-difluorophenyl)-1-(3-fluoro-1H-indazol-5-yl)but-1-en-1-yl)phenoxy)ethyl)amino)-N,N-dimethylbut-2-enamide] are 67.5 nM and 2.46 nM.
`CC/C(=C(/c1ccc(OCCNC/C=C/C(=O)N(C)C)cc1)c1ccc2[nH]nc(F)c2c1)c1cccnc1` [Compound 51, (E)-4-((2-(4-((E)-1-(3-fluoro-1H-indazol-5-yl)-2-(pyridin-3-yl)but-1-en-1-yl)phenoxy)ethyl)amino)-N,N-dimethylbut-2-enamide]: the concentration for 50% growth inhibition (GI50) in assay [1] was 347 nM; in assay [2] it was 20.9 nM.
With `CC/C(=C(/c1ccc(OCCNC/C=C/C(=O)N(C)C)cc1)c1ccc2[nH]nc(F)c2c1)c1ccncc1` [Compound 52, (E)-4-((2-(4-((E)-1-(3-fluoro-1H-indazol-5-yl)-2-(pyridin-4-yl)but-1-en-1-yl)phenoxy)ethyl)amino)-N,N-dimethylbut-2-enamide], the concentration for 50% growth inhibition (GI50) was determined as 85.8 nM in assay [1] and 2.9 nM in assay [2].
As to `CN(CCO)C(=O)/C=C/CNCCOc1ccc(/C(=C(\c2ccccc2)C2CCC2)c2ccc3[nH]nc(F)c3c2)cc1` [Compound 53, (E)-4-((2-(4-((E)-2-cyclobutyl-1-(3-fluoro-1H-indazol-5-yl)-2-phenylvinyl)phenoxy)ethyl)amino)-N-(2-hydroxyethyl)-N-methylbut-2-enamide], the GI50 in assay [1] amounted to 76.5 nM; in assay [2] it was 3.59 nM.
The matching figures for `C/C(=C(/c1ccc(OCCNC/C=C/C(=O)N(C)C)cc1)c1ccc2[nH]ncc2c1)c1ccccc1` [Compound 54, (E)-4-((2-(4-((E)-1-(1H-indazol-5-yl)-2-phenylprop-1-en-1-yl)phenoxy)ethyl)amino)-N,N-dimethylbut-2-enamide]: 160 ± 39.6 nM and 7.97 ± 1.65 nM.
The matching figures for `CN(C)C(=O)/C=C/CNCCOc1ccc(/C(=C(\c2ccccc2)C2CC2)c2ccc3[nH]ncc3c2)cc1` [Compound 56, (E)-4-((2-(4-((E)-2-cyclopropyl-1-(1H-indazol-5-yl)-2-phenylvinyl)phenoxy)ethyl)amino)-N,N-dimethylbut-2-enamide]: 63.6 ± 18.4 nM and 3.78 ± 1.75 nM.
On to `CC/C(=C(/c1ccc(OCCNC/C=C/C(=O)N(C)C)cc1)c1ccc2[nH]ncc2c1F)c1ccc(F)cc1Cl` [Compound 57, (E)-4-((2-(4-((E)-2-(2-chloro-4-fluorophenyl)-1-(4-fluoro-1H-indazol-5-yl)but-1-en-1-yl)phenoxy)ethyl)amino)-N,N-dimethylbut-2-enamide], for which the GI50 was 36.2 nM in assay [1] and 1.9 nM in assay [2].
The matching figures for `CC/C(=C(/c1ccc(OCCNC/C=C/C(=O)N(C)C)nc1)c1ccc2[nH]nc(F)c2c1)c1ccc(F)cc1Cl` [Compound 58, (E)-4-((2-((5-((Z)-2-(2-chloro-4-fluorophenyl)-1-(3-fluoro-1H-indazol-5-yl)but-1-en-1-yl)pyridin-2-yl)oxy)ethyl)amino)-N,N-dimethylbut-2-enamide]: 17.9 ± 4.5 nM and 1.3 ± 0.4 nM.
In the case of `CN(C)C(=O)/C=C/CNCCOc1ccc(/C(=C(/CC(F)(F)F)c2ccc(F)cc2Cl)c2ccc3[nH]nc(F)c3c2)cn1` [Compound 59, (E)-4-((2-((5-((Z)-2-(2-chloro-4-fluorophenyl)-4,4,4-trifluoro-1-(3-fluoro-1H-indazol-5-yl)but-1-en-1-yl)pyridin-2-yl)oxy)ethyl)amino)-N,N-dimethylbut-2-enamide], the GI50 in assay [1] came to 15.2 ± 3.7 nM; in assay [2], 0.33 ± 0.18 nM.
Turning to `CN(C)C(=O)/C=C/CNCCOc1ccc(/C(=C(/CC(F)(F)F)c2ccncc2F)c2ccc3[nH]nc(F)c3c2)cc1` [Compound 61, (E)-N,N-dimethyl-4-((2-(4-((E)-4,4,4-trifluoro-1-(3-fluoro-1H-indazol-5-yl)-2-(3-fluoropyridin-4-yl)but-1-en-1-yl)phenoxy)ethyl)amino)but-2-enamide], the results for the GI50 in assay [1] and in assay [2] were 4 ± 1.5 nM and 0.3 ± 0.1 nM, respectively.
The matching figures for `CN(C)C(=O)/C=C/CNCCOc1ccc(/C(=C(/CC(F)(F)F)c2ccncc2F)c2ccc3[nH]nc(F)c3c2)cn1` [Compound 62, (E)-N,N-dimethyl-4-((2-((5-((Z)-4,4,4-trifluoro-1-(3-fluoro-1H-indazol-5-yl)-2-(3-fluoropyridin-4-yl)but-1-en-1-yl)pyridin-2-yl)oxy)ethyl)amino)but-2-enamide]: 1.3 nM and 0.3 nM.
In the same order, the values of `CC/C(=C(/c1ccc(OCCNC/C=C/C(=O)N(C)C)cc1)c1ccc2[nH]ncc2n1)c1ccccc1` [Compound 63, (E)-N,N-dimethyl-4-((2-(4-((E)-2-phenyl-1-(1H-pyrazolo[4,3-b]pyridin-5-yl)but-1-en-1-yl)phenoxy)ethyl)amino)but-2-enamide] are 65.7 nM and 2.8 nM.
The matching figures for `CC/C(=C(\c1ccc2[nH]nc(F)c2c1)c1ccc(OCCNC/C=C/C(=O)N(C)C)cc1F)c1ccccc1` [Compound 64, (E)-4-((2-(3-fluoro-4-((Z)-1-(3-fluoro-1H-indazol-5-yl)-2-phenylbut-1-en-1-yl)phenoxy)ethyl)amino)-N,N-dimethylbut-2-enamide]: 58.3 nM and 3.1 nM.
Regarding `CC/C(=C(/c1ccc(OCCNC/C=C/C(=O)N(C)C)cc1)c1ccc2[nH]nc(F)c2c1)c1ccc(F)cc1F` [Compound 65, (E)-4-((2-(4-((E)-2-(2,4-difluorophenyl)-1-(3-fluoro-1H-indazol-5-yl)but-1-en-1-yl)phenoxy)ethyl)amino)-N,N-dimethylbut-2-enamide], the results for the GI50 in assay [1] and in assay [2] were 66 nM and 4 nM, respectively.
